Ends that are not written are not given here.
Experiments:
[1] = tested on: Human-derived Periodontal Ligament Cells (PDL Cells); assay: Cell growth of PDL cells (cell number by Coulter counter); type: cell-based; conditions: peptide added at various concentrations to DMEM containing 2% FBS; counted on Days 4 and 6; versus control medium (FIG. 1, FIG. 2)
Description: PDL cells were isolated from a healthy premolar carefully extracted from a patient who visited a hospital to extract teeth for orthodontic treatment so that periodontal ligament should not be damaged as far as possible, and cultured. The extracted tooth was washed with sterilized physiological saline and phosphate-buffered saline (PBS, Nissui), and then periodontal ligament existing in ⅓ of the tooth root at the center was scraped off with a sharp knife. The pieces of periodontal ligament were transferred to a plastic plate and minced into small fragments using a round-blade knife. Tissue fragments were left standing in a plate having a diameter of 35 mm (FALCON) and cultured in Dulbecco's modified Eagle medium (DMEM, Nissui) containing antibiotics (100 U/ml of penicillin G, 100 μg/ml of streptomycin and 250 μg/ml of gentamicin) and 10% fetal bovine serum (FBS, EQUITECH-BIO) at 37° C. under 5% CO2. […]
The PDL cells prepared in (1) were inoculated on a 24-well culture plate (FALCON) at a ratio of 5×10^3 cells/well. […] On Days 4 and 6, the cells were separated and dispersed by using PBS containing 0.08% trypsin and 0.04% ethylenediaminetetraacetic acid (EDTA), and cell number was counted by using a Coulter counter (COULTER Z1, Coulter Electronics). […]

[2] = tested on: PDL cells; assay: Cell differentiation of PDL cells (alkaline phosphatase activity, Bessey-Lowry method); type: cell-based, human; conditions: peptide at various concentrations, 2% FBS medium; one week after confluent state; versus control (FIG. 4)
Description: PDL cells were isolated from a healthy premolar carefully extracted from a patient who visited a hospital to extract teeth for orthodontic treatment so that periodontal ligament should not be damaged as far as possible, and cultured. The extracted tooth was washed with sterilized physiological saline and phosphate-buffered saline (PBS, Nissui), and then periodontal ligament existing in ⅓ of the tooth root at the center was scraped off with a sharp knife. The pieces of periodontal ligament were transferred to a plastic plate and minced into small fragments using a round-blade knife. Tissue fragments were left standing in a plate having a diameter of 35 mm (FALCON) and cultured in Dulbecco's modified Eagle medium (DMEM, Nissui) containing antibiotics (100 U/ml of penicillin G, 100 μg/ml of streptomycin and 250 μg/ml of gentamicin) and 10% fetal bovine serum (FBS, EQUITECH-BIO) at 37° C. under 5% CO2. Then, cells released from the periodontal ligament tissue fragments were subcultured under the same conditions, and the 3rd to 5th generation cells were used for experiments. • (ii) Mouse-derived Osteoblasts
As an index of cell differentiation, alkaline phosphatase (ALP) activity of cells was determined. Cells were inoculated in a 24-well culture plate at a ratio of 5×10^3 cells/well, added with the peptide (a) at various concentrations and cultured in DMEM or αMEM containing 2% FBS. One week after the time point when the cells reached a confluent state, ALP activity was determined by the following enzymochemical method (Bessey-Lowry method, Bessey O A, Lowry O H and Brock M J, A method for the rapid determination of alkaline phosphatase with five cubic millimeter of serum, J. Biol. Chem., 164:321-329, 1946).
The cultured cells were washed with PBS and then disrupted in 10 mM Tris-HCl buffer (pH 7.4, 500 μl) for 40 seconds by using an ultrasonic homogenizer (Handy Sonic model UR-20P, Tomy Seiko) and stirred. Then, 25 μl of this sample liquid was added to 125 μl of ALP buffer (0.1 M carbonate buffer, pH 9.8, 6.7 mM p-nitrophenyl phosphate, 2 mM MgCl2) and incubated at 37° C. for 30 minutes. The reaction was terminated by addition of 125 μl of 0.2 N NaOH, and absorbance was measured at 405 nm by using a microplate reader (Model 550, Bio-Rad Laboratories).
Further, the ALP activity in DMEM containing 2% FBS and DMEM or αMEM containing 2% FBS added with peptide (c) at various concentrations was also similarly examined. The symbol “cont” in FIG. 4 indicates the results for the cells cultured in DMEM containing 2% FBS alone, “PN” indicates the results for the cells cultured in the medium added only with the peptide (a), and “PC” indicates the results for the cells cultured in the medium added only with the peptide (c). In FIG. 4, “pg” and “ng” represent “pg/ml” and “ng/ml,” respectively.
Further, in addition to the peptide (a) (derived from swine), the human-derived peptide (b) and BMP were similarly examined. The results of ALP activity measurement performed when the cells reached a confluent state are shown in FIG. 5, and the results of ALP activity measurement performed one week after the confluent state was attained are shown in FIG. 6. The symbol “cont” in the figures indicates the results for the cells cultured in DMEM containing 2% FBS alone, “B” indicates the results for the cells cultured in the medium added only with BMP2, “PN” indicates the results for the cells cultured in the medium added only with the peptide (a), and “HN” indicates the results for the cells cultured in the medium added only with the peptide (b) In the figures, the unit of numerical values shown after “B,” “PN” and “HN” is “ng/ml.”

[3] = tested on: PDL cells; assay: Calcification product forming ability of PDL cells (Dahl's calcium staining, alizarin red S); type: cell-based, human; conditions: peptide at various concentrations, 10 mM sodium β-glycerophosphate, three weeks after confluent state
Description: The following experiment was performed to examine effect of the peptide on calcification product forming ability of cells.
To assess calcification ability of cells, Dahl's calcium staining was performed. The PDL cells were inoculated on a 24-well culture plate at a ratio of 5×10^3 cells/well, and cultured in 2S-containing DMEM added with the peptide (a) or (c) at various concentrations and adjusted by addition of 10 mM sodium β-glycerophosphate. Three weeks after the cells reached a confluent state, the cells were washed with PBS, fixed with neutrally buffered formalin and stained with alizarin red S (Wako Pure Chemical Industries).

NKAQQPQIKRDAWRF [(c)]
significantly increased: PDL cell number (cell growth promoting effect) [1] | ALP activity of the PDL cells [2] | calcification ability of the PDL cells [3]
